Earlier results, collected in patent US20090062391A1, “Use of a virucidal ointment in the nares for prevention of transmission and contraction of common colds” (priority 2007, published 2009).

Key:
[1] = system: viruses which cause colds; conditions: for effectiveness against viruses which cause colds: organic acid; for effectiveness at inactivating cold viruses: surfactant combined with organic acids
[2] = system: rhinovirus; conditions: hand lotions containing 2% glutaric acid, versus placebo; Hayden et al. [6]
[3] = system: herpes simplex virus; conditions: Poli et al. [5]
[4] = system: rhabdovirus; conditions: Poli et al. [5]
[5] = system: adenovirus; conditions: Poli et al. [5]; only naked virus tested
[6] = frequent application
[7] = system: rhinovirus; conditions: Hendley et al. [4]
[8] = system: common colds; conditions: in vivo

Molecule: O=C(O)CO [glycolic acid]
- effectiveness against viruses which cause colds [1]: effective

Molecule: O=C(O)CCCC(=O)O [glutaric acid]
- inactivating certain serotypes of rhinovirus [2]: more effective than placebo

Molecule: O=C(O)CC(O)(CC(=O)O)C(=O)O [citric acid]
- antiviral activity against herpes simplex virus [3]: effective
- antiviral activity against rhabdovirus [4]: effective
- antiviral activity against adenovirus [5]: not effective
- effectiveness against viruses which cause colds [1]: effective

Molecule: CCCCCCCCC(=O)O [pelargonic acid]
- effectiveness against viruses which cause colds [1]: effective

Molecule: O=C(O)CC(O)C(=O)O (centres unmarked) [malic acid]
- antiviral activity against herpes simplex virus [3]: effective
- antiviral activity against rhabdovirus [4]: effective
- antiviral activity against adenovirus [5]: not effective
- effectiveness against viruses which cause colds [1]: effective

Molecule: N[C@@H](CC(=O)O)C(=O)O [aspartic acid]
- effectiveness against viruses which cause colds [1]: effective

Molecule: O=C(O)CCC(=O)O [succinic acid]
- antiviral activity against herpes simplex virus [3]: effective
- antiviral activity against rhabdovirus [4]: effective
- antiviral activity against adenovirus [5]: not effective

Molecule: II [iodine]
- irritation of the skin [6]: too irritating to the skin

Molecule: CC(=O)C(=O)O [pyruvic acid]
- antiviral activity against herpes simplex virus [3]: effective
- antiviral activity against rhabdovirus [4]: effective
- antiviral activity against adenovirus [5]: not effective

Molecule: CCCCCCCCOC(=O)CC(C(=O)OCCCCCCCC)S(=O)(=O)O.[Na] (centres unmarked) [sodium dioctyl sulfosuccinate]
- effectiveness at inactivating cold viruses [1]: demonstrated effectiveness

Molecule: CCCCCCCCCCCCOS(=O)(=O)[O-].[Na+] [sodium dodecyl sulfate]
- effectiveness at inactivating cold viruses [1]: demonstrated effectiveness

Molecule: benzalkonium chloride
- antiviral activity [7]: performed poorly

Molecule: CCCCC(=O)O [valeric acid]
- effectiveness against viruses which cause colds [1]: effective

Molecule: CCO [ethyl alcohol]
- antiviral activity [7]: performed poorly

Molecule: CC(O)C(=O)O (centres unmarked) [lactic acid]
- effectiveness against viruses which cause colds [1]: effective

Molecule: [Zn] [zinc]
- duration of common colds [8]: shorten the duration
